{"source": "ChEMBL document CHEMBL5608109", "about": "“Hepatotoxicity screening of Donated Chemical Probes” (2024)", "test_system": "Hepatocyte spheroids", "assay": "This assay model using primary human hepatocyte (PHH) spheroids, which are cultured in Williams E medium. After spheroid formation, cells are exposed to compounds in an FBS-free culture medium. […] Imaging is performed on an Opera Phenix High-Content Screening System, allowing quantification of proliferation as a readout for evaluating the effects of chemical probes on hepatocyte regeneration.", "assay_type": "functional", "conditions": "read-out: Cell Viability; for viability at 0.1 µM: Concentration 0.1 uM; for viability at 1 µM: Concentration 1 uM; for viability at 10 µM: Concentration 10 uM"}
{"smiles": "CCCOc1ccc([C@H]2[C@H](C(=O)O)[C@@H](c3ccc4c(c3)OCO4)CN2CC(=O)Nc2c(CC)cccc2CC)cc1", "note": "[A-192621]", "values": [{"measurement": "viability at 0.1 µM", "result": "104% (non-toxic)"}, {"measurement": "viability at 1 µM", "result": "110% (non-toxic)"}]}
{"smiles": "C[C@@H](c1cccc(CN)c1)n1cc(Cl)cc(C(N)=O)c1=N", "values": [{"measurement": "viability at 1 µM", "result": "104% (non-toxic)"}, {"measurement": "viability at 10 µM", "result": "111% (non-toxic)"}]}
{"smiles": "C[C@H](NC(=O)c1cnc2n1[C@](C)(Cc1ccc(C#N)cc1)C(=O)N2c1cc(Cl)c(F)c(Cl)c1)C(=O)NC1(c2ccccn2)CC1", "note": "[BI 1950]", "values": [{"measurement": "viability at 1 µM", "result": "110% (non-toxic)"}, {"measurement": "viability at 10 µM", "result": "121% (non-toxic)"}]}
{"smiles": "Cc1nc(N2CC[C@H](O)C2)ncc1-c1cc(C(F)(F)F)cc2[nH]ncc12", "values": [{"measurement": "viability at 1 µM", "result": "116% (non-toxic)"}, {"measurement": "viability at 10 µM", "result": "107% (non-toxic)"}]}
{"smiles": "NC(=O)c1ccc2nc(-c3ccc(C4(N)CCC4)cc3)c(-c3ccccc3)n2n1", "note": "[BAY-1125976]", "values": [{"measurement": "viability at 0.1 µM", "result": "94.8% (non-toxic)"}, {"measurement": "viability at 1 µM", "result": "75.2% (non-toxic)"}]}
{"smiles": "NS(=O)(=O)c1cc(NC(=O)Cc2ccccc2)ccc1Oc1cccc(Cl)c1", "note": "[BAY-1797]", "values": [{"measurement": "viability at 1 µM", "result": "111% (non-toxic)"}, {"measurement": "viability at 10 µM", "result": "19.3% (toxic)"}]}
{"smiles": "CNCc1ccccc1-c1csc([C@@H](C)Nc2nc(C)nc3cc(OC)c(OC)cc23)c1", "note": "[BAY-293]", "values": [{"measurement": "viability at 1 µM", "result": "120% (non-toxic)"}, {"measurement": "viability at 10 µM", "result": "0.873% (toxic)"}]}
{"smiles": "CC1=CC(C)=[N+]2C1=C(CCCCc1cn(CC(=O)N3CCc4nc(NC(=O)[C@H]5CCN(C#N)C5)sc4C3)nn1)c1c(C)cc(C)n1[B-]2(F)F", "values": [{"measurement": "viability at 1 µM", "result": "104% (non-toxic)"}, {"measurement": "viability at 10 µM", "result": "105% (non-toxic)"}]}
{"smiles": "CN1CCN(c2cnc3c(C4CCN(C(=O)c5ccc(OC(F)(F)F)cc5N)CC4)ncnc3c2)CC1", "note": "[BAY-885]", "values": [{"measurement": "viability at 1 µM", "result": "99.8% (non-toxic)"}, {"measurement": "viability at 10 µM", "result": "98.6% (non-toxic)"}]}
{"smiles": "COCCOc1nc(-c2ccc(Cl)nc2)nc2c1CN(C(=O)c1ncn3ccccc13)CC2", "note": "[THPP-1]", "values": [{"measurement": "viability at 0.1 µM", "result": "118% (non-toxic)"}, {"measurement": "viability at 1 µM", "result": "116% (non-toxic)"}]}
{"smiles": "CS(=O)(=O)c1cc(C2(NC(=O)c3cncc4c3cnn4-c3ccc(F)cc3)CC2)ccn1", "note": "[BI 639667]", "values": [{"measurement": "viability at 2 µM", "setting": "Concentration 2 uM", "result": "60.2% (toxic)"}, {"measurement": "viability at 20 µM", "setting": "Concentration 20 uM", "result": "59.6% (toxic)"}]}
{"smiles": "CCOCCn1cc(C(=O)Nc2ccc(-n3nc(-c4cccnc4)cc3C(F)(F)F)cn2)ccc1=O", "note": "[BI 1935]", "values": [{"measurement": "viability at 1 µM", "result": "100% (non-toxic)"}, {"measurement": "viability at 10 µM", "result": "34.7% (toxic)"}]}
{"smiles": "CN([C@@H]1CCc2c(CC(=O)O)c3ccccc3n2C1)S(=O)(=O)c1ccc(F)cc1", "note": "[MK-7246]", "values": [{"measurement": "viability at 1 µM", "result": "107% (non-toxic)"}, {"measurement": "viability at 10 µM", "result": "111% (non-toxic)"}]}
{"smiles": "CCC(F)(F)c1cc(N2CCC(S(C)(=O)=O)CC2)nc2sc(C(N)=O)c(N)c12", "note": "[BI-605906]", "values": [{"measurement": "viability at 1 µM", "result": "103% (non-toxic)"}, {"measurement": "viability at 10 µM", "result": "134% (non-toxic)"}]}
{"smiles": "O=C(Nc1cnc(Oc2ccc(F)cc2)nc1)N1CCc2ncccc2[C@@H]1c1ccc(F)cc1", "note": "[BAY-899]", "values": [{"measurement": "viability at 1 µM", "result": "92.3% (non-toxic)"}, {"measurement": "viability at 10 µM", "result": "106% (non-toxic)"}]}
{"smiles": "O=C(O)[C@H]1[C@H](Cn2nnc3ccccc3c2=O)CC[C@@H]1C(=O)c1ccc(OCCC2CCOCC2)cc1", "note": "[BAY-7598]", "values": [{"measurement": "viability at 0.1 µM", "result": "96.9% (non-toxic)"}, {"measurement": "viability at 1 µM", "result": "97.3% (non-toxic)"}]}
{"smiles": "O=C(NCCN1CCOCC1)c1ccc2c(c1)C(=O)c1ccc(Nc3ccc(F)c(NC(=O)c4ccccc4)c3)cc1CC2", "note": "[FS-694]", "values": [{"measurement": "viability at 1 µM", "result": "74.8% (non-toxic)"}, {"measurement": "viability at 10 µM", "result": "84.2% (non-toxic)"}]}
{"smiles": "Cc1c(NC(=O)c2cc(C(N)=O)nc3cc(F)ccc23)c(C(F)(F)F)nn1Cc1ccc(C#N)cc1", "note": "[BAY-876]", "values": [{"measurement": "viability at 1 µM", "result": "91.5% (non-toxic)"}, {"measurement": "viability at 10 µM", "result": "21.4% (toxic)"}]}
{"smiles": "CC(C)(O)c1cncc(-c2nc3ccc(F)cc3n2C2CC2)c1", "note": "[MSD-CYP11B2]", "values": [{"measurement": "viability at 1 µM", "result": "113% (non-toxic)"}, {"measurement": "viability at 10 µM", "result": "96.6% (non-toxic)"}]}
{"smiles": "COc1ccc2c(c1)O[C@@H](c1ccc(OC)c(OC)c1)C[C@H]2NC(=O)C1(c2ccc3c(c2)OC(F)(F)O3)CC1", "note": "[A-1596586]", "values": [{"measurement": "viability at 1 µM", "result": "104% (non-toxic)"}, {"measurement": "viability at 10 µM", "result": "88.5% (non-toxic)"}]}
{"smiles": "O=C(NC[C@@H]1[C@H]2CN(C(=O)OCc3cc(C(F)(F)F)cc(C(F)(F)F)c3)C[C@@H]12)c1ccc2[nH]nnc2c1", "note": "[BI 2545]", "values": [{"measurement": "viability at 1 µM", "result": "119% (non-toxic)"}, {"measurement": "viability at 10 µM", "result": "76.5% (non-toxic)"}]}
{"smiles": "Cc1c(NC(=O)COc2ccc(Cl)cc2C(=O)c2cc(F)cc(C(F)(F)F)c2)ccc(C(=O)O)c1F", "note": "[BI 2540]", "values": [{"measurement": "viability at 1 µM", "result": "95.6% (non-toxic)"}, {"measurement": "viability at 10 µM", "result": "93.1% (non-toxic)"}]}
{"smiles": "Cc1ccc2nc(CNCCCOc3ccccc3)cc(O)c2c1", "note": "[UCSF924]", "values": [{"measurement": "viability at 1 µM", "result": "164% (non-toxic)"}, {"measurement": "viability at 10 µM", "result": "147% (non-toxic)"}]}
{"smiles": "O=C(NCc1ncc(C(F)(F)F)cc1Cl)c1ccc2c(c1)C1(CCS(=O)(=O)CC1)[C@H](C1CC1)N2S(=O)(=O)c1ccc(F)cc1", "note": "[BAY-784]", "values": [{"measurement": "viability at 0.1 µM", "result": "103% (non-toxic)"}, {"measurement": "viability at 1 µM", "result": "107% (non-toxic)"}]}
{"smiles": "O=C1c2ccc(Nc3ccc(F)cc3F)cc2CCc2ccc(OC[C@H](O)CO)cc21", "note": "[Skepinone-L]", "values": [{"measurement": "viability at 1 µM", "result": "94.6% (non-toxic)"}, {"measurement": "viability at 10 µM", "result": "16.2% (toxic)"}]}
{"smiles": "CCNC(=O)c1cc2c(N3CCOCC3C)ccnc2[nH]1", "note": "(configuration not stated)", "values": [{"measurement": "viability at 1 µM", "result": "90.1% (non-toxic)"}, {"measurement": "viability at 10 µM", "result": "74.9% (non-toxic)"}]}
{"smiles": "Nc1c(C(=O)NCc2ccc(C(=O)NCCCC3CCCCC3)cc2)cnn1-c1ccccc1", "note": "[SR-318]", "values": [{"measurement": "viability at 0.1 µM", "result": "81.4% (non-toxic)"}, {"measurement": "viability at 1 µM", "result": "89.8% (non-toxic)"}]}
{"smiles": "CCOC(=O)c1cc2cc(-c3cc(C(=O)NCc4ccc(C(=O)O)cc4)nn3C)ccc2[nH]1", "note": "[BI 4394]", "values": [{"measurement": "viability at 0.1 µM", "result": "108% (non-toxic)"}, {"measurement": "viability at 1 µM", "result": "106% (non-toxic)"}]}
{"smiles": "CNC(=O)c1ccc(Nc2ncc(C(F)(F)F)c(NCc3nccnc3N(C)S(C)(=O)=O)n2)cc1", "note": "[DEFACTINIB]", "values": [{"measurement": "viability at 0.1 µM", "result": "46.1% (toxic)"}, {"measurement": "viability at 1 µM", "result": "55.4% (toxic)"}]}
{"smiles": "CNC(=O)Nc1ccc2c(c1)CC[C@@]21OC(=O)N(CC(=O)N(Cc2ccc(F)cc2)[C@@H](C)C(F)(F)F)C1=O", "note": "[A-485]", "values": [{"measurement": "viability at 0.1 µM", "result": "102% (non-toxic)"}, {"measurement": "viability at 1 µM", "result": "69.1% (toxic)"}]}
{"smiles": "COc1cccc(CNC(=O)c2nc3scc(COCc4ccc(C(=O)O)cc4)c3c(=O)[nH]2)c1", "note": "[T-26c]", "values": [{"measurement": "viability at 0.1 µM", "result": "125% (non-toxic)"}, {"measurement": "viability at 1 µM", "result": "99.4% (non-toxic)"}]}
{"smiles": "Cc1cnc(-c2cc(Cl)ccc2F)cc1-n1c(=O)n(CC(N)=O)c2cnccc21", "note": "[TP-008]", "values": [{"measurement": "viability at 1 µM", "result": "90% (non-toxic)"}, {"measurement": "viability at 10 µM", "result": "99.1% (non-toxic)"}]}
{"smiles": "COc1cc(-c2cn([C@H]3CCc4c(F)cccc4N(CC(F)(F)F)C3=O)nn2)ccc1-n1cnc(C)c1", "values": [{"measurement": "viability at 1 µM", "result": "115% (non-toxic)"}, {"measurement": "viability at 10 µM", "result": "126% (non-toxic)"}]}
{"smiles": "CC(C)(O)[C@H](F)CN1Cc2cc(NC(=O)c3cnn4cccnc34)c(N3CCOCC3)cc2C1=O", "values": [{"measurement": "viability at 1 µM", "result": "118% (non-toxic)"}, {"measurement": "viability at 10 µM", "result": "90.2% (non-toxic)"}]}
{"smiles": "Cn1cncc1[C@](O)(COc1ccc(C#N)cc1-c1ccc(OC(F)(F)F)cc1)c1ccc(C#N)cc1", "values": [{"measurement": "viability at 1 µM", "result": "112% (non-toxic)"}, {"measurement": "viability at 10 µM", "result": "113% (non-toxic)"}]}
{"smiles": "CC1=C(C#N)C(c2ccc3[nH]nc(C)c3c2)C(C#N)=C(C)N1", "note": "[BAY-474]", "values": [{"measurement": "viability at 1 µM", "result": "99.5% (non-toxic)"}, {"measurement": "viability at 10 µM", "result": "111% (non-toxic)"}]}
{"smiles": "Cc1c[nH]c2nccc(Oc3c(F)cc(Nc4cc(Cl)nc(N)n4)cc3F)c12", "note": "[BAY-549]", "values": [{"measurement": "viability at 0.1 µM", "result": "79.9% (non-toxic)"}, {"measurement": "viability at 1 µM", "result": "83.7% (non-toxic)"}]}
{"smiles": "COCc1nc2cnc3cc(-c4c(C)noc4C)c(OC[C@H]4CCNC4)cc3c2n1[C@H](C)c1ccccc1", "note": "[GSK778]", "values": [{"measurement": "viability at 1 µM", "result": "118% (non-toxic)"}, {"measurement": "viability at 10 µM", "result": "64% (toxic)"}]}
{"smiles": "CN1CCN(C(=O)C(C)(C)c2ccc(C(=O)Nc3cn4cc(-c5ccncc5)ccc4n3)cc2)CC1", "note": "[T3-CLK]", "values": [{"measurement": "viability at 1 µM", "result": "109% (non-toxic)"}, {"measurement": "viability at 10 µM", "result": "1.01% (toxic)"}]}
{"smiles": "Cc1ccccc1Oc1cc(-n2c(=O)cc(C(F)(F)F)[nH]c2=O)c2ccccc2c1Cl", "note": "[BAY-069]", "values": [{"measurement": "viability at 1 µM", "result": "82.5% (non-toxic)"}, {"measurement": "viability at 10 µM", "result": "62.5% (toxic)"}]}
{"smiles": "O=C(O)c1cc(-c2ccc(C3CCNCC3)cc2)c2ccc(-c3ccc(C(F)(F)F)cc3)cc2c1", "values": [{"measurement": "viability at 1 µM", "result": "91.3% (non-toxic)"}, {"measurement": "viability at 10 µM", "result": "1.07% (toxic)"}]}
